Laboratory results reported in patent US9670162B2, “Mitochondrial aldehyde dehyrogenase-2 modulators and methods of use thereof” (The Board of Trustees of the Leland Stanford Junior …, priority 2013, dated 2017).
Numbering of substitutions follows the chain as printed.

Assays:
[1] = target: T1, human ALDH2*2 recombinant mutant enzyme (E487K) (Homo sapiens, UniProt P05091, E504K); assay: ALDH2 enzymatic assay (NADH at 340 nm), recombinant mutant enzyme; assay type: biochemical; design: key: −: no activation or inhibition; +: activation less than control 1; ++: activation similar to control 1, within 10%; +++: activation more than control 1 and less than control (compound 161); ++++: activation similar to compound 161, within 10%; conditions: activation relative to benchmarks control 1 and compound 161
T1 construct: His-tag (pTrcHis vector) (N); made in house; host or cells: E. coli BL21
T1 sequence (P05091 18-517 E504K): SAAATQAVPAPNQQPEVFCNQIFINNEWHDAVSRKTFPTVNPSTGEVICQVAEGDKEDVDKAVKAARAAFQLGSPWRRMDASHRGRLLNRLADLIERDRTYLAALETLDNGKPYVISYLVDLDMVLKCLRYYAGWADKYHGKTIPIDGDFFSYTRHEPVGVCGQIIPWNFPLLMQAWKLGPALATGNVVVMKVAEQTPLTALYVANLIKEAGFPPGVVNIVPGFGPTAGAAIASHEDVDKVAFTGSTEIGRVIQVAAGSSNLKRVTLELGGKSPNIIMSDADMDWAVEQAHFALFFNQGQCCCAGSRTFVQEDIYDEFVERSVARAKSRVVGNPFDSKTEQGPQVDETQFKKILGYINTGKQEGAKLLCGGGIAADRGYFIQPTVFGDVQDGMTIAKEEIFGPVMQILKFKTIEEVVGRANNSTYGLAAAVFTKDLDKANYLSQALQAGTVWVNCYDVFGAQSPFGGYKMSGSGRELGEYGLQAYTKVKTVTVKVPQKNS

[2] = target: T2, human ALDH2 wild type (Homo sapiens, UniProt P05091); assay: ALDH2 enzymatic assay (NADH at 340 nm), recombinant wild type enzyme; assay type: biochemical; design: key: −: no activation or inhibition; +: activation less than control 1; ++: activation similar to control 1, within 10%; +++: activation more than control 1 and less than control (compound 161); ++++: activation similar to compound 161, within 10%; conditions: activation relative to benchmarks control 1 and compound 161
T2 construct: His-tag (pTrcHis vector) (N); made in house; host or cells: E. coli BL21
T2 sequence (P05091 18-517): T1 sequence (P05091 18-517 E504K) with K487E

[3] = Aqueous solubility; assay type: physicochemical
Protocol: (§1) In vitro ADMET of compounds of the present disclosure was carried out according to known methods in the art. Below are data for certain compounds of the present disclosure.

[4] = LogD (pH 7.4); assay type: physicochemical
Protocol: as §1

[5] = HLM stability T1/2; assay type: in vitro ADME; conditions: human, liver microsomes; read-out: HLM T1/2
Protocol: as §1

[6] = RLM stability T1/2; assay type: in vitro ADME; conditions: rat, liver microsomes
Protocol: as §1

[7] = MLM stability T1/2; assay type: in vitro ADME; conditions: mouse, liver microsomes
Protocol: as §1

[8] = NHPLM stability T1/2; assay type: in vitro ADME; conditions: monkey, liver microsomes
Protocol: as §1

[9] = Plasma stability, human; assay type: in vitro ADME; conditions: plasma
Protocol: as §1

[10] = Plasma stability, rat; assay type: in vitro ADME
Protocol: as §1

[11] = target: CYP3A4 (Homo sapiens, UniProt P08684); assay: Cyp inhibition 3A4; assay type: in vitro ADME; conditions: 10 μM
Sequence of CYP3A4 (P08684 whole entry): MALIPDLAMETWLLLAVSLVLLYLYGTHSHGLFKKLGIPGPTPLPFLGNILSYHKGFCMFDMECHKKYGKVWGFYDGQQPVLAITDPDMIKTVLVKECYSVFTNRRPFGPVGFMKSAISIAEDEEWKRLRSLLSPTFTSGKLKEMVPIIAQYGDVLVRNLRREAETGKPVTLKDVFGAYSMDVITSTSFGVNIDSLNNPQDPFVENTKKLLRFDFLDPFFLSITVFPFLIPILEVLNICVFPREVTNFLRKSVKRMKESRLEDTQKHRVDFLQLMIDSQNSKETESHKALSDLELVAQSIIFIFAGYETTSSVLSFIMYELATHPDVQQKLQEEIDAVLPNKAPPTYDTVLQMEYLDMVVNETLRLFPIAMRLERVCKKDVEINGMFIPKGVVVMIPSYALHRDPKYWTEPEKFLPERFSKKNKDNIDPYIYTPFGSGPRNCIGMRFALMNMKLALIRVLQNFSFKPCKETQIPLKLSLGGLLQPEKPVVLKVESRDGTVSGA
Protocol: as §1

[12] = target: CYP2C9 (Homo sapiens, UniProt P11712); assay: Cyp inhibition 2C9; assay type: in vitro ADME
Sequence of CYP2C9 (P11712 whole entry): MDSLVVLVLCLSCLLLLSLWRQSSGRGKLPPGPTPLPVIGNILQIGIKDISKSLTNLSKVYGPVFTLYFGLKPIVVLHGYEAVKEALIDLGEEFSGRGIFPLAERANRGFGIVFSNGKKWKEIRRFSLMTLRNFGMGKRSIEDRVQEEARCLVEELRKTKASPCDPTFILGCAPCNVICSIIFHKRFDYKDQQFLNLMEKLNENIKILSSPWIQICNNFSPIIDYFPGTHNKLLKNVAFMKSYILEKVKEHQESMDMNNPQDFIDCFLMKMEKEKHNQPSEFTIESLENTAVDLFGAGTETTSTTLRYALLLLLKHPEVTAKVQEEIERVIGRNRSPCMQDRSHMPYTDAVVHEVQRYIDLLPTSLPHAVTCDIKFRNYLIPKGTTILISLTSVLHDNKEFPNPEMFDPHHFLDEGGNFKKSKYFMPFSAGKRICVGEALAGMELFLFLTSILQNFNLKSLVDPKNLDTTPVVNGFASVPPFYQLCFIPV
Protocol: as §1

[13] = target: CYP2C19 (Homo sapiens, UniProt P33261); assay: Cyp inhibition 2C19; assay type: in vitro ADME; conditions: 10 μM
Sequence of CYP2C19 (P33261 whole entry): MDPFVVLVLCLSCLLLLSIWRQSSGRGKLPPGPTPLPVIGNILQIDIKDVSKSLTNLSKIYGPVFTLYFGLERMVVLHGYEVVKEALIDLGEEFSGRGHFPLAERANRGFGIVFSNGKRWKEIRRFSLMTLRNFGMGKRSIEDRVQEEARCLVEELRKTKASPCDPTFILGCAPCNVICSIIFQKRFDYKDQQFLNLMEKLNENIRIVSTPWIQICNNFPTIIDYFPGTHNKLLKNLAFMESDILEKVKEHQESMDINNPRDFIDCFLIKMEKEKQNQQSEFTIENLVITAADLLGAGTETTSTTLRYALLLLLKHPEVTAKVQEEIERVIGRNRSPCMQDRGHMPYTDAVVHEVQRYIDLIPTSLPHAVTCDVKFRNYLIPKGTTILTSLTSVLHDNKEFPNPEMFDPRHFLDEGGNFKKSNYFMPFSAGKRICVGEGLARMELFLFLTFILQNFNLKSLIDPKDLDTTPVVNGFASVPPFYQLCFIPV
Protocol: as §1

[14] = target: CYP2D6 (Homo sapiens, UniProt P10635); assay: Cyp inhibition 2D6; assay type: in vitro ADME
Sequence of CYP2D6 (P10635 whole entry): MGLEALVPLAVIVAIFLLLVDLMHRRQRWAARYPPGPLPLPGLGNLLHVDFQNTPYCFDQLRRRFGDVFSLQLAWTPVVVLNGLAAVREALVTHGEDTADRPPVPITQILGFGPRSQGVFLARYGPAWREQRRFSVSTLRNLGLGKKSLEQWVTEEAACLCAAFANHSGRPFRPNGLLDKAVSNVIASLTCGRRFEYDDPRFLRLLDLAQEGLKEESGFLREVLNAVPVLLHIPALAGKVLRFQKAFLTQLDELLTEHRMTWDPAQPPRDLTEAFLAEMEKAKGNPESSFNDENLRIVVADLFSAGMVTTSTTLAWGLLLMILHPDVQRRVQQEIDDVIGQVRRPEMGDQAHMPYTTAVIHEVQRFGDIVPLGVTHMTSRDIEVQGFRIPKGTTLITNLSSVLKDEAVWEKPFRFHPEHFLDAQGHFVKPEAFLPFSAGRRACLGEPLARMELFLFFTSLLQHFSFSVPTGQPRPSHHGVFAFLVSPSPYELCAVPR
Protocol: as §1

[15] = target: T3, CYP1A2 (Homo sapiens, UniProt P05177); assay: Cyp inhibition 1A2; assay type: in vitro ADME; conditions: 10 μM
T3 sequence (P05177 1-516): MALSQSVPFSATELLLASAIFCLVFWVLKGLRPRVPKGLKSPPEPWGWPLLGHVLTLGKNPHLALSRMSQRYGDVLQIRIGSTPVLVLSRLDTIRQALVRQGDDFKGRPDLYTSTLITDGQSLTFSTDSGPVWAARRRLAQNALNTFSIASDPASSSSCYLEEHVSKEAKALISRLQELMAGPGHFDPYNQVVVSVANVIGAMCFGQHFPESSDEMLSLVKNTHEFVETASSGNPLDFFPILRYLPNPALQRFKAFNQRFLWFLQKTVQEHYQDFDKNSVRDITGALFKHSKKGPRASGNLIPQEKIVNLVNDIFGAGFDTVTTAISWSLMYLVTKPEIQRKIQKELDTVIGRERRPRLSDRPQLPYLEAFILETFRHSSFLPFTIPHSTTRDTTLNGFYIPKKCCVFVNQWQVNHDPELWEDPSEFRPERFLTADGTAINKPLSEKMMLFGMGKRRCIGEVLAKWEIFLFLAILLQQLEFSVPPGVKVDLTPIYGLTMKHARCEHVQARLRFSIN
Protocol: as §1

[16] = Caco-2 permeability; assay type: in vitro ADME; conditions: human; for Papp A→B: read-out: Caco-2 Papp A-B; for efflux ratio: read-out: Caco-2 Papp B-A/A-B
Protocol: as §1

[17] = Plasma protein binding (PPB), human; assay type: in vitro ADME
Protocol: as §1

[18] = Plasma protein binding (PPB), rat; assay type: in vitro ADME
Protocol: as §1

| Structure (SMILES) | ALDH2 (mutant) [1] | ALDH2 (wild-type) [2] | Aqu. Solu. [3] | logD [4] | half-life [5] | half-life [6] | half-life [7] | half-life [8] | Plasma stability Human [9] | Plasma stability Rat [10] | inhibition at 10 µM [11] | inhibition at 10 µM [12] | inhibition at 10 µM [13] | inhibition at 10 µM [14] | inhibition at 10 µM [15] | Papp A→B [16] | Papp B→A [16] | efflux ratio [16] | fraction unbound [17] | fraction unbound [18] |
| --- | --- | --- | --- | --- | --- | --- | --- | --- | --- | --- | --- | --- | --- | --- | --- | --- | --- | --- | --- | --- |
| COc1ccc(CNC(=O)c2c(Cl)cccc2OCC2CC2)cc1F [Compound 135] | ++++ | ++++ | 5 µg/mL | 3.8 | 2.67 min | 0.753 min | 0.753 min | 0.685 min |  |  |  |  |  |  |  |  |  |  |  |  |
| COc1ccc(CNC(=O)c2c(Cl)cc[n+]([O-])c2OCC2CC2)cc1F [Compound 169] | ++ | + | 272 µg/mL | 1.6 | 3.85 min | 82.5 min | 100 min | 51.3 min | 100% | 100% | 7.7% | -12% | 3.5% | 0.81% | 1.1% | 1.22 ×10⁻⁶ cm/s | 13.1 ×10⁻⁶ cm/s | 10.7 | 0.098 | 0.367 |
| Cc1nc2ccc(CNC(=O)c3c(Cl)ccnc3OCC3CC3)cc2[nH]1 [Compound 261] | + | + |  |  |  |  |  |  |  |  |  |  |  |  |  |  |  |  |  |  |
| O=C(NCc1ccc2ncsc2c1)c1c(Cl)ccnc1OCC1CC1 [Compound 264] | − | − |  |  |  |  |  |  |  |  |  |  |  |  |  |  |  |  |  |  |
| COc1cc(F)c(CNC(=O)c2c(Cl)ccnc2OCC(C)C)cc1F [Compound 269] | ++++ | ++++ |  |  |  |  |  |  |  |  |  |  |  |  |  |  |  |  |  |  |
| COc1ccc(CNC(=O)c2c(Cl)ccn(C)c2=O)cc1F [Compound 273] | + | + |  |  |  |  |  |  |  |  |  |  |  |  |  |  |  |  |  |  |
| O=C(NCc1ccc2c(c1)OCO2)c1c(Cl)cccc1Cl [Control 1, reference compound] | ++ | ++ | 12 µg/mL | 3.4 | 21.2 min | 1.33 min | 0.753 min | 1.57 min | 100% | 100% | 83.5% | 16.3% | 72.4% | 9.1% | 31.9% | 16.6 ×10⁻⁶ cm/s | 11.7 ×10⁻⁶ cm/s | 0.7 | 0.025 | 0.037 |
